Reference: patent US12077503B2, “Substituted cyclic amides and their use as herbicides” (FMC CORPORATION, priority 2015, dated 2024)

Key:
Format in all cases: in vivo
[1] = test system: Galium (catchweed bedstraw, Galium aparine); experiment: Test A postemergence; conditions: Galium, post-emergence, 240 h, Postemergence, read-out: Galium plant response rating (0 to 100 scale)
In short: (§1)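 Visual injury scores from 0, no effect, to 100, complete control, were assigned versus untreated controls roughly 10 d after treatment in the greenhouse. Test chemicals, formulated with surfactant in a non-phytotoxic solvent, were applied to planted seeds as a preemergence soil spray or postemergence to one- to two-leaf plants 2 to 10 cm tall, in loam–sand soil.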

[2] = test system: barnyardgrass (Echinochloa crus-galli); experiment: Test A postemergence; conditions: Echinochloa crus-galli, post-emergence, 240 h, Postemergence
In short: as §1

[3] = test system: wheat (Triticum aestivum); experiment: Test A postemergence; conditions: Triticum aestivum, post-emergence, 240 h, Postemergence, read-out: Wheat plant response rating (0 to 100 scale)
In short: as §1

[4] = test system: giant foxtail (Setaria faberii); experiment: Test A postemergence; conditions: Setaria faberi, post-emergence, 240 h, Postemergence, read-out: Foxtail, Giant plant response rating (0 to 100 scale)
In short: as §1

Kochia (Kochia scoparia) [5] = experiment: Test A postemergence; conditions: Bassia scoparia, post-emergence, 240 h, Postemergence, read-out: Kochia plant response rating (0 to 100 scale)
In short: as §1

[6] = test system: ryegrass, Italian (Italian ryegrass, Lolium multiflorum); experiment: Test A postemergence; conditions: Lolium multiflorum, post-emergence, 240 h, Postemergence, read-out: Ryegrass, Italian plant response rating (0 to 100 scale)
In short: as §1

[7] = test system: pigweed (Amaranthus retroflexus); experiment: Test A postemergence; conditions: Amaranthus retroflexus, post-emergence, 240 h, Postemergence, read-out: Pigweed plant response rating (0 to 100 scale)
In short: as §1

[8] = test system: ragweed (common ragweed, Ambrosia elatior); experiment: Test A postemergence; conditions: Ambrosia artemisiifolia, post-emergence, 240 h, Postemergence, read-out: Ragweed plant response rating (0 to 100 scale)
In short: as §1

[9] = test system: blackgrass (Alopecurus myosuroides); experiment: Test A postemergence; conditions: Alopecurus myosuroides, post-emergence, 240 h, Postemergence, read-out: Blackgrass plant response rating (0 to 100 scale)
In short: as §1

corn (Zea mays) = experiment: Test A postemergence; conditions: Zea mays, post-emergence, 240 h, Postemergence, read-out: Corn plant response rating (0 to 100 scale)
In short: as §1

[10] = test system: barnyardgrass (Echinochloa crus-galli); experiment: Test A preemergence; conditions: Echinochloa crus-galli, pre-emergence, 240 h, 0 to 100 scale where 0 is no effect and 100 is complete control, read-out: Barnyardgrass plant response rating
In short: as §1

[11] = test system: giant foxtail (Setaria faberii); experiment: Test A preemergence; conditions: Setaria faberi, pre-emergence, 240 h, 0 to 100 scale where 0 is no effect and 100 is complete control, read-out: Foxtail, Giant plant response rating
In short: as §1

Kochia (Kochia scoparia) [12] = experiment: Test A preemergence; conditions: Bassia scoparia, pre-emergence, 240 h, 0 to 100 scale where 0 is no effect and 100 is complete control, read-out: Kochia plant response rating
In short: as §1

[13] = test system: ryegrass, Italian (Italian ryegrass, Lolium multiflorum); experiment: Test A preemergence; conditions: Lolium multiflorum, pre-emergence, 240 h, 0 to 100 scale where 0 is no effect and 100 is complete control, read-out: Ryegrass, Italian plant response rating
In short: as §1

[14] = test system: pigweed (Amaranthus retroflexus); experiment: Test A preemergence; conditions: Amaranthus retroflexus, pre-emergence, 240 h, 0 to 100 scale where 0 is no effect and 100 is complete control, read-out: Pigweed plant response rating
[15] = test system: ragweed (common ragweed, Ambrosia elatior); experiment: Test A preemergence; conditions: Ambrosia artemisiifolia, pre-emergence, 240 h, 0 to 100 scale where 0 is no effect and 100 is complete control, read-out: Ragweed plant response rating
In short: as §1

[16] = test system: barnyardgrass (Echinochloa crus-galli); experiment: Test B flooded paddy test; conditions: Echinochloa crus-galli, 250 g ai/ha, Flood; 0 to 100 scale where 0 is no effect and 100 is complete control; read-out: Barnyardgrass plant response rating
In short: (§2)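 Compound goes directly into floodwater once pots are flooded 3 cm above soil, targeting plants at two leaves; the water depth is then held for the test duration. Plants sit 13–15 d in a greenhouse and are rated visually, 100 denoting complete control.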

[17] = test system: ducksalad (Heteranthera limosa); experiment: Test B flooded paddy test; conditions: Heteranthera limosa, 250 g ai/ha, Flood; 0 to 100 scale where 0 is no effect and 100 is complete control; read-out: Ducksalad plant response rating
In short: as §2

rice (Oryra sativa) = experiment: Test B flooded paddy test; conditions: Oryza sativa, 250 g ai/ha, Flood; 0 to 100 scale where 0 is no effect and 100 is complete control; read-out: Rice plant response rating
In short: as §2

[18] = test system: sedge, umbrella (small-flower umbrella sedge, Cyperus difformis); experiment: Test B flooded paddy test; conditions: Cyperus difformis, 250 g ai/ha, Flood; 0 to 100 scale where 0 is no effect and 100 is complete control; read-out: Sedge, Umbrella plant response rating
In short: as §2

[19] = 125 g ai/ha, visual rating about 10 d after treatment
[20] = 31 g ai/ha, 0 is no effect, 100 is complete control
[21] = 125 g ai/ha, preemergence, visual injury rating, approximately 10 d

## Cc1c(F)cccc1NC(=O)[C@H]1C(=O)N(C)C[C@@H]1c1ccc2c(c1)C(F)(F)C(F)(F)O2 [Compound 1272]
[1]; [19]
  pest or weed control at 125 g/ha: 60%
[1]; [20]
  pest or weed control at 31 g/ha: 50%
[2]; 125 g ai/ha, visual rating about 10 d after treatment, read-out: Barnyardgrass plant response rating (0 to 100 scale, 0 no effect, 100 complete control)
  pest or weed control at 125 g/ha: 70%
[2]; 31 g ai/ha, 0 is no effect, 100 is complete control, read-out: Barnyardgrass plant response rating (0 to 100 scale)
  pest or weed control at 31 g/ha: 40%
[3]; [19]
  plant injury at 125 g/ha: 50%
[3]; [20]
  plant injury at 31 g/ha: 20%
[4]; [19]
  pest or weed control at 125 g/ha: 80%
[4]; [20]
  pest or weed control at 31 g/ha: 50%
Kochia (Kochia scoparia) [5]; [19]
  pest or weed control at 125 g/ha: 20%
Kochia (Kochia scoparia) [5]; [20]
  pest or weed control at 31 g/ha: 0%
[6]; [19]
  pest or weed control at 125 g/ha: 30%
[6]; [20]
  pest or weed control at 31 g/ha: 20%
[7]; [19]
  pest or weed control at 125 g/ha: 0%
[7]; [20]
  pest or weed control at 31 g/ha: 0%
[8]; [19]
  pest or weed control at 125 g/ha: 0%
[8]; [20]
  pest or weed control at 31 g/ha: 0%
[9]; [19]
  pest or weed control at 125 g/ha: 40%
[9]; [20]
  pest or weed control at 31 g/ha: 20%
Corn (Zea mays); [19]
  plant injury at 125 g/ha: 50%
Corn (Zea mays); [20]
  plant injury at 31 g/ha: 0%
[10]; 31 g ai/ha, Preemergence
  pest or weed control at 31 g/ha: 90%
[10]; [21]
  pest or weed control at 125 g/ha: 90%
[11]; 31 g ai/ha, Preemergence
  pest or weed control at 31 g/ha: 90%
[11]; [21]
  pest or weed control at 125 g/ha: 90%
Kochia (Kochia scoparia) [12]; 31 g ai/ha, Preemergence
  pest or weed control at 31 g/ha: 0%
Kochia (Kochia scoparia) [12]; [21]
  pest or weed control at 125 g/ha: 20%
[13]; 31 g ai/ha, Preemergence
  pest or weed control at 31 g/ha: 20%
[13]; [21]
  pest or weed control at 125 g/ha: 60%
[14]; 31 g ai/ha, Preemergence
  pest or weed control at 31 g/ha: 0%
[14]; [21]
  pest or weed control at 125 g/ha: 0%
[15]; 31 g ai/ha, Preemergence
  pest or weed control at 31 g/ha: 0%
[15]; [21]
  pest or weed control at 125 g/ha: 0%
[16]
  pest or weed control at 250 g/ha: 50%
[17]
  pest or weed control at 250 g/ha: 80%
Rice (Oryra sativa)
  pest or weed control at 250 g/ha: 20%
[18]
  pest or weed control at 250 g/ha: 0%
